Legend:
[1] = Toxicity in C57BL/6J mouse implanted with mouse B16-F10 cells assessed as lung damage at 20 to 40 mg/kg, ip administered once daily for 9 days by H and E staining based analysis; format: organism-based; settings: in vivo, 216 h, dose 20-40 mg/kg, time 9 day
B16-F10 [2] = test: Antitumor activity against mouse B16-F10 cells implanted in C57BL/6J mouse assessed as tumor growth inhibition at 40 mg/kg, ip administered once daily for 9 days; format: functional; settings: B16-F10, 216 h, time 9 day, read-out: TGI
Histone deacetylase 3 = Histone deacetylase 3 (Homo sapiens, UniProt O15379); test: Inhibition of human recombinant HDAC3 using Ac-Leu-Gly-Lys (Ac)-AMC as substrate preincubated for 10 mins followed by substrate addition and measured after 45 mins by TECAN microtiter plate reader analysis
Chain of Histone deacetylase 3 (O15379 whole entry): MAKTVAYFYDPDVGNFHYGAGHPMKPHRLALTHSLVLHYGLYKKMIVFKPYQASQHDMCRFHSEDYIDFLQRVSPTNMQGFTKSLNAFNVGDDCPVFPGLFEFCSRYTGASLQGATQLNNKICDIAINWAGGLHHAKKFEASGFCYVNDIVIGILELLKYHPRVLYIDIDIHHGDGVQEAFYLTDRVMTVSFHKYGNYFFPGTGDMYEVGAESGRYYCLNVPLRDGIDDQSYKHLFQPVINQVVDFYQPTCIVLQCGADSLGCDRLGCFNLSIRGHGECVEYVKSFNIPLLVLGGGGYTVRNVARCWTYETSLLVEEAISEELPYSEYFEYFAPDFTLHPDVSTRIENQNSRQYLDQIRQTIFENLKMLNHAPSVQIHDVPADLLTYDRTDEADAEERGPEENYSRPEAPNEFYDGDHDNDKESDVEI

[3] = molecular target: T1, Protein deacetylase HDAC6 (Homo sapiens, UniProt Q9UBN7); test: Inhibition of human recombinant HDAC6 using Ac-Leu-Gly-Lys (Ac)-AMC as substrate preincubated for 10 mins followed by substrate addition and measured after 45 mins by TECAN microtiter plate reader analysis
T1 sequence (Q9UBN7 whole entry): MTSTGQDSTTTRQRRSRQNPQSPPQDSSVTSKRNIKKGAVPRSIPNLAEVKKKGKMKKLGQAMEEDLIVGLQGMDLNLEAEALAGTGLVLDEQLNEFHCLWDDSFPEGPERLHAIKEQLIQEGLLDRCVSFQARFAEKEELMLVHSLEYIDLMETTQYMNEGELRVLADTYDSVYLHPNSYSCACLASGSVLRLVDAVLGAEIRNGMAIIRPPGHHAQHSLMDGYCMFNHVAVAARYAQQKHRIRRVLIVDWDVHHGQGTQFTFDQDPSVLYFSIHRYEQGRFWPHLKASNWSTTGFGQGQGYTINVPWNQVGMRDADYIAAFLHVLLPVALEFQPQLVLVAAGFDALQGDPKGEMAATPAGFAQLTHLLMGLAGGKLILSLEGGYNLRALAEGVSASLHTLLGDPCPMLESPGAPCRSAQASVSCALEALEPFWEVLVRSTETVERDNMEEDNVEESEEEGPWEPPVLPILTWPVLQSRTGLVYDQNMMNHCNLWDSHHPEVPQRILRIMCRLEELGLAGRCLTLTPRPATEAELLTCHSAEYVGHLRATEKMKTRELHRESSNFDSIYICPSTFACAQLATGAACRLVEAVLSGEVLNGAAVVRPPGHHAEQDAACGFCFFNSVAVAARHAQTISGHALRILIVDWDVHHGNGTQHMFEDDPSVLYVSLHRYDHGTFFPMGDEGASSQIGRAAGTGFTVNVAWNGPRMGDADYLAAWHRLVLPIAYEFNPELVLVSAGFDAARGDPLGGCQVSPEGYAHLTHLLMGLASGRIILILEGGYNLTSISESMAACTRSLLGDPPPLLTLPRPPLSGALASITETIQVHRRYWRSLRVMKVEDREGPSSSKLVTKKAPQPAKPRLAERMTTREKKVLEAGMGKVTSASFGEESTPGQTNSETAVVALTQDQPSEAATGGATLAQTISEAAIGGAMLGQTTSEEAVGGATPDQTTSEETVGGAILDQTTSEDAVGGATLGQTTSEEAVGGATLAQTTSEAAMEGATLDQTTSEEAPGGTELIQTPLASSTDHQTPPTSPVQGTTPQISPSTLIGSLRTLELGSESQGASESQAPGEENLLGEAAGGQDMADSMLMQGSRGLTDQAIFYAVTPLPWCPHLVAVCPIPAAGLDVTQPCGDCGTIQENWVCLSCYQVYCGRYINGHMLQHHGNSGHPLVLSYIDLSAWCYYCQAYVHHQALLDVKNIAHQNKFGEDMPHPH

B16-F10 [4] = test: Antiproliferative activity against mouse B16-F10 cells assessed as cell growth inhibition incubated for 48 hrs by MTT assay; format: functional, cell-based; settings: B16-F10, 48 h
HepG2 = test: Antiproliferative activity against human HepG2 cells assessed as cell growth inhibition incubated for 48 hrs by MTT assay; format: functional, cell-based; settings: HepG2, 48 h
HCT-116 = test: Antiproliferative activity against human HCT-116 cells assessed as cell growth inhibition incubated for 48 hrs by MTT assay; format: functional, cell-based; settings: HCT-116, 48 h
B16-F10 [5] = test: Induction of apoptosis in mouse B16-F10 cells assessed as viable cells at 1 uM incubated for 48 hrs by Annexin V-FITC/PI staining based flow cytometry analysis (reference value: 92.3%); format: functional; settings: read-out: Activity
B16-F10 [6] = test: Induction of apoptosis in mouse B16-F10 cells assessed as viable cells at 2 uM incubated for 48 hrs by Annexin V-FITC/PI staining based flow cytometry analysis (reference value: 92.3%); format: functional; settings: read-out: Activity
B16-F10 [7] = test: Induction of apoptosis in mouse B16-F10 cells assessed as viable cells at 10 uM incubated for 48 hrs by Annexin V-FITC/PI staining based flow cytometry analysis (reference value: 92.3%); format: functional; settings: read-out: Activity
B16-F10 [8] = test: Induction of apoptosis in mouse B16-F10 cells assessed as early apoptotic cells at 1 uM incubated for 48 hrs by Annexin V-FITC/PI staining based flow cytometry analysis (reference value: 0.45 %); format: functional
B16-F10 [9] = test: Induction of apoptosis in mouse B16-F10 cells assessed as early apoptotic cells at 10 uM incubated for 48 hrs by Annexin V-FITC/PI staining based flow cytometry analysis (reference value: 0.45 %); format: functional
B16-F10 [10] = test: Induction of apoptosis in mouse B16-F10 cells assessed as late apoptotic cells at 1 uM incubated for 48 hrs by Annexin V-FITC/PI staining based flow cytometry analysis (reference value: 5.02 %); format: functional
B16-F10 [11] = test: Induction of apoptosis in mouse B16-F10 cells assessed as late apoptotic cells at 2 uM incubated for 48 hrs by Annexin V-FITC/PI staining based flow cytometry analysis (reference value: 5.02 %); format: functional
B16-F10 [12] = test: Induction of apoptosis in mouse B16-F10 cells assessed as necrotic cells at 10 uM incubated for 48 hrs by Annexin V-FITC/PI staining based flow cytometry analysis (reference value: 2.24%); format: functional
B16-F10 [13] = test: Induction of cell cycle arrest in mouse B16-F10 cells assessed as accumulation of cells at G0/G1 phase at 2 uM incubated for 48 hrs by PI staining based flow cytometry analysis (reference value: 70.09%); format: functional
B16-F10 [14] = test: Induction of cell cycle arrest in mouse B16-F10 cells assessed as accumulation of cells at G2/M phase at 2 uM incubated for 48 hrs by PI staining based flow cytometry analysis (reference value: 5.87%); format: functional
B16-F10 [15] = test: Induction of cell cycle arrest in mouse B16-F10 cells assessed as accumulation of cells at S phase at 4 uM incubated for 48 hrs by PI staining based flow cytometry analysis (reference value: 24.04%); format: functional
A-375 = test: Antiproliferative activity against human A-375 cells co-cultured with human Jurkat T cells incubated for 48 hrs by MTT assay; format: functional, cell-based; settings: dose 0.0625-1 µM
B16-F10 [16] = test: Immunomodulatory activity in mouse B16-F10 cells implanted in C57BL/6J mouse assessed as percentage of CD3 positive CD8 positive cells in tumor at 40 mg/kg, ip administered once daily for 9 days by flow cytometric analysis (reference value: 0.44 %); format: functional; settings: time 9 day

In the case of `CCCNNC(=O)CCCNCc1ccc(-c2cccc(-c3ccccc3)c2C)nc1OC`, the Activity [1] is reported as “Non-toxic”, the inhibition in vivo at 40 mg/kg (B16-F10 [2]) is reported as 66.5% and the IC50 (Histone deacetylase 3) is reported as 107 nM. For the same compound, the IC50 [3] was greater than 10000 nM, the IC50 (B16-F10 [4]) was 2330 nM and the IC50 (HepG2) was 4000 nM. The IC50 (HCT-116) was 2860 nM, the viability at 1 µM (B16-F10 [5]) was 84.8% and the viability at 2 µM (B16-F10 [6]) was 71.7%. The viability at 10 µM (B16-F10 [7]) was 31.3%, the Activity (B16-F10 [8]) was 3.34% and the Activity (B16-F10 [9]) was 52.9%. For the same compound, the Activity (B16-F10 [10]) was 9.24%, the Activity (B16-F10 [11]) was 14.1% and the Activity (B16-F10 [12]) was 1.04%. For the same compound, the Activity (B16-F10 [13]) was 87.25%, the Activity (B16-F10 [14]) was 4.96% and the Activity (B16-F10 [15]) was 4.69%. For the same compound, the Activity (A-375) was “Dose-dependent-effect” and the Activity (B16-F10 [16]) was 5.08%.

Reference: ChEMBL document CHEMBL6109156, “Discovery of Dual PD-L1/HDAC3 Inhibitors for Tumor Immunotherapy” (J Med Chem, 2025)
